In article PMC7177849, “Gut Microbial Catabolites of Tryptophan Are Ligands and Agonists of the Aryl Hydrocarbon Receptor: A Detailed Characterization” (International Journal of Molecular Sciences, 2020):
Read-outs that look alike come from different tables or passages of the source. One block for each compound: values may come before it.

Legend:
murine AhR = biological target: T1, murine AhR (Mus musculus, UniProt P30561); test: Competitive radio-ligand ([3H]-TCDD) AhR binding assay, cytosols from Hepa1c1c7 cells; settings: Table 1 summary class
T1 sequence (P30561 10-805): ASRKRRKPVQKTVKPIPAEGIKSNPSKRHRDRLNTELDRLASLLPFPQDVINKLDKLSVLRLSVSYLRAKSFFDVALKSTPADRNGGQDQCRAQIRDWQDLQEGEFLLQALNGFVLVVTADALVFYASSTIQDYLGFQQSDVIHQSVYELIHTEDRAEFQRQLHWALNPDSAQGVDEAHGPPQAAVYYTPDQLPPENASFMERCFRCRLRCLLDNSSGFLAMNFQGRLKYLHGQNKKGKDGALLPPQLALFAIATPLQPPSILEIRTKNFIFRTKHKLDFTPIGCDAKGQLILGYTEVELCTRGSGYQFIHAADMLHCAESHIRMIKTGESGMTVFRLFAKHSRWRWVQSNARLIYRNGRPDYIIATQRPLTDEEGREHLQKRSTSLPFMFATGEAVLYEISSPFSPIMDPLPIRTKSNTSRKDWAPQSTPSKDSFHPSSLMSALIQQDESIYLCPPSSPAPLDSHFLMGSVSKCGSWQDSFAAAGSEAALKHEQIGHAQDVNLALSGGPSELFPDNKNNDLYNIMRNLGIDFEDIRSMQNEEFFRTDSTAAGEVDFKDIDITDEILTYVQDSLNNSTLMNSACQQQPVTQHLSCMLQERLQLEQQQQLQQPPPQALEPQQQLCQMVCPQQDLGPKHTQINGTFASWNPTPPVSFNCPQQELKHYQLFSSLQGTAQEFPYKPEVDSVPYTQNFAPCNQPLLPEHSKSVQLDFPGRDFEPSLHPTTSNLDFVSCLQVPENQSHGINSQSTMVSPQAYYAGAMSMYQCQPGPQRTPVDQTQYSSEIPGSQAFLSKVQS
Description: Figure 2 Competitive radio-ligand binding assay. Cytosols from Hepa1c1c7 cells were incubated with vehicle (negative control; 0.1% V/V), FICZ (positive control; 0.01 nM – 10 nM), TCDF (non-specific binding; 200 nM) and increasing doses of MICT in the presence of 2 nM [^3H]-TCDD. The specific binding of [^3H]-TCDD was determined as a difference between total and non-specific (200 nM; TCDF) reactions (value for vehicle DMSO; 0.1% V/V = corresponds to specific binding of [^3H]-TCDD = 100%). At least two independent experiments were performed and the incubations were done in triplicates in each experiment (technical replicates).
Ligand binding assay was performed using cytosolic protein extracts from murine Hepa1c1c7 cells as described. Briefly, aliquots of protein (2 mg/mL) were incubated at the room temperature for two (2) h with 2 nM [^3H]-TCDD in the presence of DMSO (vehicle control), FICZ (positive control), 200 nM TCDF (non-specific binding) or increasing concentration of MICT. After the incubation, the hydroxyapatite slurry was added to the samples and the suspension was incubated on ice and washed three times with HEGT buffer. The hydroxyapatite pellet was re-suspended in scintillation cocktail, and radioactivity was determined in a liquid scintillation counter. The specific binding of [^3H]-TCDD was determined by subtracting the radioactivity of non-specific reaction (TCDF) from total radioactivity. The values of IC50 were calculated where appropriate.

CYP1A1 mRNA [1] = test: CYP1A1 mRNA (qRT-PCR) in intestinal LS180 cells; type: cell-based, human
Description: (§1) Figure 4 Effects of MICT on the induction of CYP1A1 mRNA in human hepatic and intestinal cells. Cultured cells were incubated for 24 h with the vehicle (DMSO; 0.1% v/v) and tested MICT in the presence or absence of TCDD (10 nM). RT-PCR determined the level of CYP1A1 mRNA, and the data were normalized per GAPDH mRNA level. […] (A,B) Experiments in three consecutive passages of human colon adenocarcinoma cell line LS180 in the absence (A) and the presence (B) of 10 nM TCDD. The bar graphs show the percentage of maximal induction attained by TCDD and are expressed as the mean ± SD. (C) Experiments in three consecutive passages of wild-type (AhR^+/^+) and AhR-knockout (AhR^−/^−) HT-29 cells. […] (D) Primary human hepatocytes from three different donors (LH79, Hep2201020, and Hep2201021).
(§2) Total RNA was isolated using TRI Reagent® (Sigma Aldrich, Prague, Czech Republic). cDNA was synthesized using M-MuLV reverse transcriptase (New England Biolabs, Ipswich, MA, USA). The reverse transcription was performed at 42 °C for 60 min using Random Primers 6 (New England Biolabs, Ipswich, MA, USA) and diluted in a 1:4 ratio by PCR-grade water. The quantitative reverse transcriptase-polymerase chain reaction (qRT-PCR) was performed on the Lightcycler 480 II using the LightCycler ® 480 Probes Master (Roche Diagnostic Corporation, Prague, Czech Republic). The levels of CYP1A1 and GAPDH mRNAs were determined using the Universal Probe Library probes (UPL; Roche Diagnostic Corporation, Prague, Czech Republic) in combination with specific primers, using a protocol described elsewhere. All measurements were performed in triplicates, and the gene expression was normalized to glyceraldehyde-3-phosphate dehydrogenase (GAPDH) as a house-keeping gene. The data were processed using the delta-delta Ct method and expressed as a fold induction over the negative control (DMSO) or as a percentage of the positive control (maximal induction by TCDD).

CYP1A1 mRNA [2] = test: CYP1A1 mRNA (qRT-PCR) in wild-type and AhR-knockout HT-29 cells; type: cell-based, human
Description: as §1
CRISPR/Cas9 knockout of the AhR in HT-29 cells: A CRISPR/Cas9 expression vector with GFP, pSpCas9(BB)-2A-GFP (PX458) (#48138; Addgene, Cambridge, MA, USA) was used for integration of the gRNA complementary to exon 2 of the AHR gene. 4 × 10^5 cells were seeded in a 6-well plate and transfected (at 60–70% confluence) with a mixture of vector DNA and Lipofectamine™ 3000 (Life Technologies) according to the manufacturer’s instructions. The transfected cells positive for GFP signal were sorted using BD Aria II Sorp (Becton Dickinson, Franklin Lakes, NJ, USA), in a single cell suspension into a 96-well plate. DNA isolation was performed by a QIAamp DNA Mini Kit (Qiagen, Hilden, Germany) according to the manufacturer’s instructions. The function of the CRISPR/Cas9 system was verified by the SURVEYOR mutation detection kit (Integrated DNA Technologies, Leuven, Belgium) according to the manufacturer’s instructions. The positive clones were checked for AhR expression by Western Blotting. PCR amplification products were purified using the QIAquick PCR Purification Kit (Qiagen) and integrated into a plasmid vector (pGEM_T Easy Vector Systems, Promega), and E.coli DHP α (MAX Efficiency DH5a Competent Cells, Thermo Fisher; Waltham, MA, USA) were transformed according to manufacturer’s instructions, DNA was isolated, and deletions in the AhR gene sequences were verified by sequencing (Mix2seq, Eurofins Genomic, Luxembourg).
as §2

CYP1A1 mRNA [3] = test: Summary of CYP1A1 gene expression in human hepatic and intestinal cells; type: cell-based; settings: Table 1 summary class; CYP1A1
Description: as §1, §2

[4] = LS180 cells co-incubated with TCDD (10 nM), 24 h
[5] = colon HT-29 cells, wild-type, 24 h

SMILES: Cc1c[nH]c2ccccc12 [3MI, skatole]
Affinity (IC50) (murine AhR): low | antagonistic effects on CYP1A1 mRNA (CYP1A1 mRNA [1]; [4]): antagonistic effects were observed primarily | induction of CYP1A1 mRNA (CYP1A1 mRNA [1]; LS180 cells, 24 h): strong induction | induction of CYP1A1 mRNA (CYP1A1 mRNA [2]; [5]): weaker inducers | Gene Expression (CYP1A1 mRNA [3]): strong inducer

SMILES: O=Cc1c[nH]c2ccccc12 [IA, indole-3-aldehyde]
Affinity (IC50) (murine AhR): no | antagonistic effects on CYP1A1 mRNA (CYP1A1 mRNA [1]; [4]): antagonistic effects were observed primarily | Gene Expression (CYP1A1 mRNA [3]): inactive

SMILES: O=C(O)/C=C/c1c[nH]c2ccccc12 [IAC, indole-3-acrylate]
Affinity (IC50) (murine AhR): very low | antagonistic effects on CYP1A1 mRNA (CYP1A1 mRNA [1]; [4]): to a lesser extent | induction of CYP1A1 mRNA (CYP1A1 mRNA [1]; LS180 cells, 24 h): strong induction | induction of CYP1A1 mRNA (CYP1A1 mRNA [2]; [5]): strong induction | Gene Expression (CYP1A1 mRNA [3]): strong inducer

SMILES: NC(=O)Cc1c[nH]c2ccccc12 [IAD, indole-3-acetamide]
Affinity (IC50) (murine AhR): low | induction of CYP1A1 mRNA (CYP1A1 mRNA [1]; LS180 cells, 24 h): strong induction | induction of CYP1A1 mRNA (CYP1A1 mRNA [2]; [5]): strong induction | Gene Expression (CYP1A1 mRNA [3]): strong inducer

Affinity (IC50) (murine AhR): very low | Gene Expression (CYP1A1 mRNA [3]): inactive
SMILES: OCCc1c[nH]c2ccccc12 [IET, indole-3-ethanol]

SMILES: O=C(O)C(O)Cc1c[nH]c2ccccc12 (stereo not shown) [ILA, indole-3-lactate]
Affinity (IC50) (murine AhR): no | antagonistic effects on CYP1A1 mRNA (CYP1A1 mRNA [1]; [4]): to a lesser extent | Gene Expression (CYP1A1 mRNA [3]): inactive

SMILES: c1ccc2[nH]ccc2c1 [IND, indole]
Affinity (IC50) (murine AhR): very low | antagonistic effects on CYP1A1 mRNA (CYP1A1 mRNA [1]): antagonistic effects were observed primarily | induction of CYP1A1 mRNA (CYP1A1 mRNA [1]): strong induction | induction of CYP1A1 mRNA (CYP1A1 mRNA [2]): weaker inducers | Gene Expression (CYP1A1 mRNA [3]): strong inducer

SMILES: O=C(O)C(=O)Cc1c[nH]c2ccccc12 [IPY, indole-3-pyruvate]
Affinity (IC50) (murine AhR): low | antagonistic effects on CYP1A1 mRNA (CYP1A1 mRNA [1]; [4]): antagonistic effects were observed primarily | induction of CYP1A1 mRNA (CYP1A1 mRNA [1]; LS180 cells, 24 h): strong induction | induction of CYP1A1 mRNA (CYP1A1 mRNA [2]; [5]): strong induction | Gene Expression (CYP1A1 mRNA [3]): strong inducer

SMILES: NCCc1c[nH]c2ccccc12 [TA, tryptamine]
Affinity (IC50) (murine AhR): no | induction of CYP1A1 mRNA (CYP1A1 mRNA [1]; LS180 cells, 24 h): strong induction | induction of CYP1A1 mRNA (CYP1A1 mRNA [2]; [5]): weaker inducers | Gene Expression (CYP1A1 mRNA [3]): strong inducer

SMILES: Clc1cc2c(cc1Cl)Oc1cc(Cl)c(Cl)cc1O2 [TCDD, 2,3,7,8-tetrachlorodibenzo-p-dioxin, reference compound]
CYP1A1 induction (CYP1A1 mRNA [2]; AhR knock-out HT-29 variant, 24 h): nullified
